This experiment has as its system Rhopalosiphum padi. Put plainly: Antifeedant activity against third-instar larvae of Rhopalosiphum padi assessed as repellency index after 24 hr by feeding choice assay. Details: concentration or dose not given beside the values. In kind it is functional.
For the compound `O=C1COc2ccccc2N1`, the Activity amounted to 17%.
The value for `COc1ccc2c(c1)OC(O)C(=O)N2O` (configuration not stated) was 74%; that for `O=C1C(O)Oc2ccccc2N1O` (configuration not stated) was 92.3%; that for `O=C1COc2ccccc2N1O` was 26%.
The value for `COC(=O)c1ccc2c(c1)OCC(=O)N2O` [7-MeOCO-D-DIBOA] was 32%; that for `COc1ccc2c(c1)OCC(=O)N2O` was 52%.
The figure for `COc1ccc2c(c1)OC(OC)C(=O)N2O` (configuration not stated) is 33.3%; for `COc1ccc2c(c1)OC(O)C(=O)N2` (configuration not stated) it is 35%.
Turning to `O=C1Nc2ccccc2OC1O` (configuration not stated), the Activity was 38%.
The figure for `COC1Oc2ccccc2N(O)C1=O` (configuration not stated) is 0%.
The figure for `COc1ccc2c(c1)OCC(=O)N2` is 18%.
With `O=C(O)c1ccc2c(c1)OCC(=O)N2O`, the Activity was determined as 2.5%.

Source of the values: ChEMBL document CHEMBL3044999, “Chemical basis for the antifeedant activity of natural hydroxamic acids and related compounds” (2004).
